Source: patent publication US20230074252A1, “DOSAGES AND METHODS FOR TREATING PULMONARY ARTERIAL HYPERTENSION WITH RODATRISTAT” (Altavant Sciences GmbH, priority 2020, published 2023)

Tests used:
Assay in all cases: Transporter inhibition, transporter-expressing in vitro system
Format in all cases: in vitro ADME
OAT3 = target: T1, OAT3 (Homo sapiens, UniProt Q8TCC7); details: for Potential for interaction? (transporter inhibitor), OAT3: predicted @ 600 mg BID
T1 sequence (Q8TCC7 1-542): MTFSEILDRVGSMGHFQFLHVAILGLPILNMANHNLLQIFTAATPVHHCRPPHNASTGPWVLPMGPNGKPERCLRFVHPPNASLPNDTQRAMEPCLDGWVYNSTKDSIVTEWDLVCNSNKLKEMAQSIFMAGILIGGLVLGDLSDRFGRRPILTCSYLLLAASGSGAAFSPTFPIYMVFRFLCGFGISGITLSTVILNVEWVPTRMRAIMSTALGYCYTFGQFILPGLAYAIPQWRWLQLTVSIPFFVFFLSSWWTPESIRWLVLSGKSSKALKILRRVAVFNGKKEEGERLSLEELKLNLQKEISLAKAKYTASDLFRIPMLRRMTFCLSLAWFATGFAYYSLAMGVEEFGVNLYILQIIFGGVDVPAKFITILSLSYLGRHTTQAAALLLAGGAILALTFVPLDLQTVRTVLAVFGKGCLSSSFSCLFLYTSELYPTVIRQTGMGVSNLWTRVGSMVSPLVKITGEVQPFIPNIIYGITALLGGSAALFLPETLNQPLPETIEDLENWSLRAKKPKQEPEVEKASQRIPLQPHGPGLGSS
Description: (§1) The competitive inhibition of specific transporters was investigated for RVT-1201 and KAR5417 in transporter-expressing in vitro systems (XT158039). Inhibition of P-gp was evaluated using a Caco-2 cell line with digoxin as probe substrate. Inhibition of OATP1B1 and OATP1B3 was evaluated using a HEK293 cell line expressing these transporters with estradiol-17β-glucuronide as probe substrate. In addition, inhibition of other transporters was also investigated (BCRP, OAT1, OAT3, OCT2, MATE1, MATE2-K). The IC50 estimates for P-gp (RVT-1201) and OATP1B1/3 (RVT-1201 and KAR5417) supported further evaluation of inhibition DDI potential using the PBPK model. For each IC50 estimate, substrate concentration and Km were used to estimate RVT-1201 and KAR5417 Ki with Equation 1 (Cheng and Prusoff, 1973).

MATE2-K = MATE2-K (Homo sapiens, UniProt Q86VL8); details: for Potential for interaction? (transporter inhibitor), MATE2-K: predicted @ 600 mg BID
MATE2-K, sequence (Q86VL8 1-566 isoform Q86VL8-3): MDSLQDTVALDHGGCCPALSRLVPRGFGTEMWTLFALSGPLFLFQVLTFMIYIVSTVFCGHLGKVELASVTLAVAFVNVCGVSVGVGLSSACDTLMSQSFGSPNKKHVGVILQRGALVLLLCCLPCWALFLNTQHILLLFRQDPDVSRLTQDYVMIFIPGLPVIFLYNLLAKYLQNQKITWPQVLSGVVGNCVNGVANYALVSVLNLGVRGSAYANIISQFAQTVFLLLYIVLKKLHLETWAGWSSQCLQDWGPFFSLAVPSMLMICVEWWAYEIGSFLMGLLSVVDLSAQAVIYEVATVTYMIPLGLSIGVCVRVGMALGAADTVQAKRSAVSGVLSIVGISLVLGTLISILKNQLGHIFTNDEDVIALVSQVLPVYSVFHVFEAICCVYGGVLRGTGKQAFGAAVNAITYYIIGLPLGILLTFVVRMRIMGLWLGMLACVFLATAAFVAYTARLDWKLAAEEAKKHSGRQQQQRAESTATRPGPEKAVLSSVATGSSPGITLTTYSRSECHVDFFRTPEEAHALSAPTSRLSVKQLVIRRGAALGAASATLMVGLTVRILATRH
Description: as §1

OCT2 = target: T2, OCT2 (Homo sapiens, UniProt O15244); details: for IC50: concentrations of up to 20 μM; for Potential for interaction? (transporter inhibitor), OCT2: predicted @ 600 mg BID
T2 sequence (O15244 1-555): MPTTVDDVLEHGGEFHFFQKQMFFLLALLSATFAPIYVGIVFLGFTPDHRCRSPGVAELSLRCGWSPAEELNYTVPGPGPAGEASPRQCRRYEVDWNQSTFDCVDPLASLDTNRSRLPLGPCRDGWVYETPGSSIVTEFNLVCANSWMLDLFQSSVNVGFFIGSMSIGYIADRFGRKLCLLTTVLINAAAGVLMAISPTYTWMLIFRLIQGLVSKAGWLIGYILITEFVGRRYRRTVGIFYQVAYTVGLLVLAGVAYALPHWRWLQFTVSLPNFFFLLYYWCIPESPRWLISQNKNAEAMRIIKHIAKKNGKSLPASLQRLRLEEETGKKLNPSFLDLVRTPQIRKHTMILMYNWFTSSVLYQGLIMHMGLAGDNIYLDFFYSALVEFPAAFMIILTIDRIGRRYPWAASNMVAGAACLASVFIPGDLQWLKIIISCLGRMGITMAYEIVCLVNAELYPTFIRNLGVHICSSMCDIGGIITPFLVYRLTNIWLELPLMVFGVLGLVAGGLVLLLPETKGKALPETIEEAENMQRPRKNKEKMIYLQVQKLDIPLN
Description: as §1

MATE1 = target: T3, MATE1 (Homo sapiens, UniProt Q96FL8); details: for Potential for interaction? (transporter inhibitor), MATE1: predicted @ 600 mg BID
T3 sequence (Q96FL8 1-570): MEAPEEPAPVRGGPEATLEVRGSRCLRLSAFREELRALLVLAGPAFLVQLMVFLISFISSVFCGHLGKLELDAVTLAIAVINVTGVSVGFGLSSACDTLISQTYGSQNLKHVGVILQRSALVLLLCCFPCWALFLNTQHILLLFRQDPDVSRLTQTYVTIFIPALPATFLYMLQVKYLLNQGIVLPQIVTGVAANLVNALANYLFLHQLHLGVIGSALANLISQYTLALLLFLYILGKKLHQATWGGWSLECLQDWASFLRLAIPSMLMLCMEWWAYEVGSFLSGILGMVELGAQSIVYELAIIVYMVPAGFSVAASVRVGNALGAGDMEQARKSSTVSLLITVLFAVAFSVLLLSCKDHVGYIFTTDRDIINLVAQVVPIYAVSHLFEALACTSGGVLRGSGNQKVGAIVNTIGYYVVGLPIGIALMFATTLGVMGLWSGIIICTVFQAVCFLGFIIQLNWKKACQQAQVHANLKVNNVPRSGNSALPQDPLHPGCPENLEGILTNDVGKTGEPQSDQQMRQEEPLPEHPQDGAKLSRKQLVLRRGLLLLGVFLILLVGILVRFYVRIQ
Description: as §1

OAT1 = target: T4, OAT1 (Homo sapiens, UniProt Q4U2R8); details: for Potential for interaction? (transporter inhibitor), OAT1: predicted @ 600 mg BID
T4 sequence (Q4U2R8 1-563): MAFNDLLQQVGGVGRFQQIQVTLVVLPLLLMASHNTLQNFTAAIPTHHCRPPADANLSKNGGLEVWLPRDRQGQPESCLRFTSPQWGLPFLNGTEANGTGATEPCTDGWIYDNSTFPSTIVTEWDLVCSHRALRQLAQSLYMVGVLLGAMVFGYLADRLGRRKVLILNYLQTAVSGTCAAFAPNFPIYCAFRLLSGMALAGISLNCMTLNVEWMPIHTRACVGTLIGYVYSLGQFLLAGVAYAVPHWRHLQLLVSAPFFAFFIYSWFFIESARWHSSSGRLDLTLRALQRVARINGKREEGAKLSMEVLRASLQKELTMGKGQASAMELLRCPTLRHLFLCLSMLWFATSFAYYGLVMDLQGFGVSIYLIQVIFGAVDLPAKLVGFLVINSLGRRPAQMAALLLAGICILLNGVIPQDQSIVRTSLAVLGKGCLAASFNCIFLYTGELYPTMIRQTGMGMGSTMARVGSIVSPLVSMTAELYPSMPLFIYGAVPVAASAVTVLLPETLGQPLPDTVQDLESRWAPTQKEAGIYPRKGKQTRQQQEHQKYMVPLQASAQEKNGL
Description: as §1

Compound: CCOC(=O)[C@@H]1CC2(CCN(c3cc(O[C@H](c4ccc(Cl)cc4-c4ccccc4)C(F)(F)F)nc(N)n3)CC2)CN1 [Rodatristat ethyl, (S)-ethyl 8-(2-amino-6-((R)-1-(5-chloro-[1,1′-biphenyl]-2-yl)-2,2,2-trifluoroethoxy)pyrimidin-4-yl)-2,8-diazaspiro[4.5]decane-3-carboxylate]
- Inhibition of OAT3 (in words) (OAT3): Neither rodatristat ethyl nor rodatristat inhibited
- Potential for interaction? (transporter inhibitor), OAT3 (OAT3): No
- Potential for interaction? (transporter inhibitor), MATE2-K (MATE2-K): No
- IC50 (OCT2): > 20 µM
- Potential for interaction? (transporter inhibitor), OCT2 (OCT2): No
- Potential for interaction? (transporter inhibitor), MATE1 (MATE1): No
- Inhibition of OAT1 (in words) (OAT1): Neither rodatristat ethyl nor rodatristat inhibited
- Potential for interaction? (transporter inhibitor), OAT1 (OAT1): No

Compound: Nc1nc(O[C@H](c2ccc(Cl)cc2-c2ccccc2)C(F)(F)F)cc(N2CCC3(CC2)CN[C@H](C(=O)O)C3)n1 [Rodatristat, (S)-8-(2-amino-6-((R)-1-(5-chloro-[1,1′-biphenyl]-2-yl)-2,2,2-trifluoroeth-oxy)pyrimidin-4-yl)-2,8-diazaspiro[4.5]decane-3-carboxylic acid]
- Inhibition of OAT3 (in words) (OAT3): Neither rodatristat ethyl nor rodatristat inhibited
- Potential for interaction? (transporter inhibitor), OAT3 (OAT3): No
- Potential for interaction? (transporter inhibitor), MATE2-K (MATE2-K): No
- Inhibition of MATE2-K (in words) (MATE2-K; up to 30 μM nominal concentration): did not inhibit
- IC50 (OCT2): > 20 µM
- Potential for interaction? (transporter inhibitor), OCT2 (OCT2): No
- Potential for interaction? (transporter inhibitor), MATE1 (MATE1): No^a
- inhibition at 30 µM (MATE1; transporter-expressing in vitro system (MATE1), nominal 30 μM): 30%
- Inhibition of OAT1 (in words) (OAT1): Neither rodatristat ethyl nor rodatristat inhibited
- Potential for interaction? (transporter inhibitor), OAT1 (OAT1): No
